In patent US4997950A, “Novel C-terminal gastrin antagonists” (priority 1989, dated 1991):
“Also recorded” adds a separate entry of the source. Where a name gives a salt, the structure may show the parent alone. Non-standard residues stand in square brackets, D forms with d. Residues, ends and D or L forms follow the SMILES beside them. *: point of attachment. Boc = CC(C)(C)OC(=O)*; βAla = NCCC(=O)O

How the values were obtained:
[1] = tested on: acid secretion, isolated perfused rat stomach; assay: acid output from the isolated, perfused rat stomach, with or without gastrin-17; design: species or system rat (Wistar)
Procedure: In brief, stomachs from fasted male Wistar rats (240-270 g) were completely isolated and placed in organ baths filled with Krebs-Ringer buffer. The vascular bed was perfused at a rate of 2 ml.min^-1 with Krebs-Ringer buffer containing 5 mM glucose, 5 mM pyruvate, 40 mg.ml^-1 bovine serum albumin and 10% (v/v) fresh, washed ovine erythrocytes gassed with 96% O2, 4% CO2 by a membrane oxygenator. The gastric lumen was perfused with distilled water (pH 7.0) gassed with O2 (100%). All perfusates and the organ bath were kept at 37° C. After an initial "wash-out" period of 20 minutes, isobutylmethylxanthine (50 μM) was added to the vascular perfusate. After a further 20 minutes, the peptide to be tested was added, giving a final peptide concentration of 10^-9, 10^-7 or 10^-5 M. Five other stomachs were given 520 pM gastrin which was known to produce maximal acid secretion. Furthermore, each peptide was given together with gastrin (520 pM) to evaluate the gastrin inhibitory properties of the peptide. The acid output was determined by titration of the lumenal perfusate to neutrality with dodium hydroxide (1 mM).

[2] = tested on: gastrin / pentagastrin-stimulated acid secretion; conditions: cited from earlier work
[3] = tested on: pentagastrin stimulated acid secretion, rat stomach; assay: acid secretion from the ligated rat stomach; assay type: in vivo, rat (Sprague-Dawley); conditions: for ACID SECRETION: basal 26.7 ± 3.21
Procedure: In brief fasted male Sprague-Dawley rats (200-250 g) were anaesthetised by the intravenous administration of Sagital (0.1 mg/100 g body weight). The abdominal cavity of each rat was exposed and the stomach was ligated at the pyloric and cardiac sphincters. The test solution (200 μl), containing either saline, pentagastrin (1 μg) or the synthetic peptide in conjunction with pentagastrin (1 μg), was applied directly to the exposed stomach surface, and left for 80 minutes. The stomach was then removed and the contents were washed out with distilled water (15 ml). The washings were titrated to neutrality by the addition of sodium hydroxide (10 mM).

pepsin secretion = assay: inhibition of pepsin secretion in dogs with gastric fistula and Heidenhain pouch; assay type: in vivo, dog (beagle); conditions: for effect on pepsin secretion: gastric fistula
Procedure: (§1) In brief, six beagle dogs were surgically prepared with Heidenhain pouches and gastric fistula. The dogs were fasted for 18 hours before the experiment. […] Collections of gastric secretions were recovered at 10 minute intervals. Each dog received an intravenous infusion throughout the experiment consisting of 150 mM NaCl and 8 mM KCl at 2 ml.min^-1. Secretory stimulants and the synthetic peptides were added to this infusion at appropriate rates. The stimulants of gastric secretion used were pentagastrin and histamine phosphate. Pentagastrin (0.5 μg.Kg^-1.h^-1) was given for 1 hour and then the synthetic peptide was added to the infusion and continued for another hour at a dose of 20 pmol.kg^-1 h^-1. The procedure was identical for histamine except that the dose of histamine was […]. The ten minute samples were titrated to pH 7.0 by the addition of sodium hydroxide (1 mM) and the acid secretion was expressed as μmol H^+ per 10 minutes.

[4] = tested on: pentagastrin-stimulated acid secretion; assay: inhibition of pentagastrin-stimulated acid secretion in dogs with gastric fistula and Heidenhain pouch; assay type: in vivo, dog (beagle); conditions: for order of decreasing antagonist activity: 20 pmol.kg^-1.h^-1; for effect on pentagastrin-stimulated acid secretion: 20 pmol.kg^-1.h^-1, gastric fistula and Heidenhain pouch; for ACID INHIBITION / percentage inhibition of acid: analogue 20 pmol.kg^-1.h^-1, period 110-170 minutes
Procedure: as §1
The analogues depicted in Table 6.5 were tested as gastrin antagonists using dogs surgically prepared with gastric fistulae and Heidenhain pouches. The acid secretion was measured at 10 minute intervals during the administration of pentagastrin and each of the analogues.

With CSCCC(NC(=O)C(Cc1c[nH]c2ccccc12)NC(=O)CNC(=O)C(Cc1ccc(O)cc1)NC(=O)C(C)NC(=O)C(CCC(=O)O)NC(=O)C(CCC(=O)O)NC(=O)C(CCC(=O)O)NC(=O)[C@H](CCC(=O)O)NC(=O)[C@H](CCC(=O)O)NC(=O)[C@H](CC(C)C)NC(=O)[C@H](Cc1c[nH]c2ccccc12)NC(=O)[C@@H]1CCCN1C(=O)CNC(=O)[C@@H](N)CCC(=O)O)C(=O)NC(CC(=O)O)C(=O)NC(Cc1ccccc1)C(N)=O (stereo in doubt) [GASTRIN] the Acid output ([1]; gastrin 520 pM alone, basal 8.7) was 58.7 μmol H^+ /60 min.
For CC(C)C[C@H](NC(=O)[C@H](Cc1c[nH]c2ccccc12)NC(=O)OC(C)(C)C)C(=O)N[C@@H](CC(=O)O)C(N)=O [N-tBOC-Trp-Leu-Asp-NH2] (Boc-Trp-Leu-Asp-NH2), the “antagonist activity” value [2] is given as “shortest sequence still retaining antagonist activity”, the “concentration at which antagonist properties are exhibited” value [2] is given as 100 µM and the “reduction of acid secretion” value ([2]; joint infusion of peptide (40 μg/kg) and pentagastrin (0.5 μg/kg)) is given as 50%.
In the case of CSCC[C@H](NC(=O)[C@H](Cc1c[nH]c2ccccc12)NC(=O)CCNC(=O)OC(C)(C)C)C(=O)N[C@@H](CC(=O)O)C(=O)N[C@@H](Cc1ccccc1)C(N)=O [PENTAGASTRIN, reference compound], the “ACID SECRETION” value ([3]; pentagastrin 13 nmol/kg alone) is reported as 60.6 ± 8.63 μmol/80 min.
With CC(C)C[C@H](NC(=O)[C@H](Cc1c[nH]c2ccccc12)NC(=O)OC(C)(C)C)C(=O)NCCC(=O)O [Peptide I, t-Butyloxycarbonyl-L-Tryptophyl-L-Leucyl-β-Alanine] (Boc-Trp-Leu-[βAla]-OH) the “ACID SECRETION” value ([3]; peptide 8.2 nmol/kg + pentagastrin 13 nmol/kg) was 22.7 ± 7.27 μmol/80 min, the “effect on acid secretion, ligated stomach” value ([3]; peptide I 8.2 nmol.Kg^-1 with pentagastrin, peptide XXII 80 or 4 pmol.Kg^-1) was “potent antagonist of pentagastrin stimulated acid secretion; also recorded: reduced to a value similar to the basal level” and the “ACID SECRETION” value ([3]; peptide alone 8.2 nmol/kg) was 28.6 ± 4.21 μmol/80 min. The “Inhibition of Pepsin Secretion” value (pepsin secretion; GF (gastric fistula)) was 67.3 Units/kg, the “percentage inhibition of pepsin secretion” value (pepsin secretion; GF (gastric fistula)) was 59.2% and the “Inhibition of Pepsin Secretion” value (pepsin secretion; HP (Heidenhain pouch)) was 1.65 Units/kg. For the same molecule, the “effect on pepsin secretion” value (pepsin secretion) was “significant decrease in pepsin secretion from the gastric fistula”, the “order of decreasing antagonist activity” value [4] was “I>III>XIV>XV>II” and the “effect on pentagastrin-stimulated acid secretion” value ([4]; listed as Boc-Trp-Leu-β-Ala) was “retaining potent antagonistic properties”. For the same molecule, the “effect on pentagastrin-stimulated acid secretion” value ([4]; listed as Boc-Trp-leu-β-Ala) was “most potent antagonist of the series”, the “ACID INHIBITION” value ([4]; GF (gastric fistula)) was 617.58 mmol H^+ /kg and the “percentage inhibition of acid” value ([4]; GF (gastric fistula)) was 60%. For the same molecule, the “ACID INHIBITION” value ([4]; HP (Heidenhain pouch)) was 35.70 mmol H^+ /kg and the “percentage inhibition of acid” value ([4]; HP (Heidenhain pouch)) was 55.8%.
In the case of CC(C)C[C@H](NC(=O)CCc1ccccc1)C(=O)NCCC(=O)O [Peptide II, Phenyl-3-Propionyl-Leucyl-β-Alanine], the “order of decreasing antagonist activity” value [4] is reported as “I>III>XIV>XV>II”, the “effect on pentagastrin-stimulated acid secretion” value [4] is reported as “gastrin antagonists although they are less potent than the parent peptide” and the “ACID INHIBITION” value ([4]; GF (gastric fistula)) is reported as 562.22 mmol H^+ /kg. For the same molecule, the “percentage inhibition of acid” value ([4]; GF (gastric fistula)) was 54.7%, the “ACID INHIBITION” value ([4]; HP (Heidenhain pouch)) was 32.59 mmol H^+ /kg and the “percentage inhibition of acid” value ([4]; HP (Heidenhain pouch)) was 50.92%.
In the case of CC(C)C[C@H](NC(=O)CCc1c[nH]c2ccccc12)C(=O)NCCC(=O)O [Peptide III, Indole-3-Propionyl-L-Leucyl-β-Alanine], the “Inhibition of Pepsin Secretion” value (pepsin secretion; GF (gastric fistula)) is reported as 71.1 Units/kg, the “percentage inhibition of pepsin secretion” value (pepsin secretion; GF (gastric fistula)) is reported as 62.5% and the “Inhibition of Pepsin Secretion” value (pepsin secretion; HP (Heidenhain pouch)) is reported as 5.78 Units/kg. For the same molecule, the “effect on pepsin secretion” value (pepsin secretion) was “significant decrease in pepsin secretion from the gastric fistula”, the “order of decreasing antagonist activity” value [4] was “I>III>XIV>XV>II” and the “effect on pentagastrin-stimulated acid secretion” value [4] was “gastrin antagonists although they are less potent than the parent peptide”. For the same molecule, the “ACID INHIBITION” value ([4]; GF (gastric fistula)) was 125.51 mmol H^+ /kg and the “percentage inhibition of acid” value ([4]; GF (gastric fistula)) was 12.2%.
For CC(C)C[C@H](NC(=O)CCc1c[nH]c2ccccc12)C(=O)N[C@@H](CC(=O)O)C(=O)NCCc1ccccc1 [Peptide V, Indole-3-Propionyl-L-Leucyl-L-Aspartyl-Phenethylamide], the “Inhibition of Pepsin Secretion” value (pepsin secretion; GF (gastric fistula)) was -3.1 Units/kg, the “percentage inhibition of pepsin secretion” value (pepsin secretion; GF (gastric fistula)) was 0% and the “Inhibition of Pepsin Secretion” value (pepsin secretion; HP (Heidenhain pouch)) was 2.04 Units/kg. The “ACID INHIBITION” value ([4]; GF (gastric fistula)) was 303.25 mmol H^+ /kg, the “percentage inhibition of acid” value ([4]; GF (gastric fistula)) was 29.5% and the “ACID INHIBITION” value ([4]; HP (Heidenhain pouch)) was 11.00 mmol H^+ /kg. For the same molecule, the “percentage inhibition of acid” value ([4]; HP (Heidenhain pouch)) was 17.2%.
With CC(C)C[C@@H](C(=O)NCCC(=O)O)N(C)C(=O)CCc1ccccc1 [Peptide XIV, Phenyl-3-propionyl-N-methyl-L-Leucyl-β-Alanine] the “order of decreasing antagonist activity” value [4] was “I>III>XIV>XV>II”, the “effect on pentagastrin-stimulated acid secretion” value [4] was “antagonists with significant activity” and the “ACID INHIBITION” value ([4]; GF (gastric fistula)) was 256.77 mmol H^+ /kg. The “percentage inhibition of acid” value ([4]; GF (gastric fistula)) was 25%.
In the case of CC(C)C[C@H](NC(=O)CCc1ccccc1)C(=O)N(C)CCC(=O)O [Peptide XV, Phenyl-3-propionyl-L-Leucyl-N-Methyl-β-Alanine], the “order of decreasing antagonist activity” value [4] is reported as “I>III>XIV>XV>II”, the “effect on pentagastrin-stimulated acid secretion” value [4] is reported as “antagonists with significant activity” and the “ACID INHIBITION” value ([4]; GF (gastric fistula)) is reported as 185.32 mmol H^+ /kg. For the same molecule, the “percentage inhibition of acid” value ([4]; GF (gastric fistula)) was 18%.
With CC(C)C[C@H](NC(=O)[C@@H](N)Cc1c[nH]c2ccccc12)C(=O)CN[C@@H](CC(=O)O)C(=O)N[C@@H](Cc1ccccc1)C(N)=O [Peptide XXI, L-Tryptophyl-L-Leucyl-.psi.(COCH2 NH)-L-Aspartyl-L-Phenylalanyl amide dihydrochloride] the “effect on acid secretion, isolated perfused stomach” value ([1]; 10^-9 to 10^-5 M, absence or presence of gastrin-17 520 pM, dihydrochloride) was “At low concentrations it inhibits basal acid secretion; also recorded: when administered at 10^-5 M or in conjunction with gastrin-17, it acts as a weak agonist; also recorded: partial agonist”, the Acid output ([1]; peptide 10^-5 M + G-17 (520 pM), gastrin alone 58.7) was 68.5 μmol H^+ /60 min and the Acid output ([1]; peptide 10^-5 M, basal 8.7) was 22.4 μmol H^+ /60 min. For the same molecule, the Acid output ([1]; peptide 10^-7 M, basal 8.7) was 1.6 μmol H^+ /60 min and the Acid output ([1]; peptide 10^-9 M, basal 8.7) was 2.2 μmol H^+ /60 min.
With CC(C)C[C@H](NC(=O)[C@H](Cc1c[nH]c2ccccc12)NC(=O)CN1CC[C@H](NC(=O)[C@H](C)NC(=O)OC(C)(C)C)C1=O)C(=O)N[C@@H](CC(=O)O)C(=O)N[C@@H](Cc1ccccc1)C(N)=O [Peptide XXII, t-Butyloxycarbonyl-L-Alanyl-amino-2-oxo-1-pyrrolidineacetyl-L-Tryptophyl-L-Leucyl-L-Aspartyl-L-Phenylalanyl amide] the “increase of affinity for the gastrin receptor as compared to pentagastrin” value ([3]; deduced from γ-lactam peptide acid secretion) was “approximately 120 fold”.
